Test [1] deals with T1, Kynureninase (Rattus norvegicus, UniProt P70712).
T1 sequence (P70712 whole entry): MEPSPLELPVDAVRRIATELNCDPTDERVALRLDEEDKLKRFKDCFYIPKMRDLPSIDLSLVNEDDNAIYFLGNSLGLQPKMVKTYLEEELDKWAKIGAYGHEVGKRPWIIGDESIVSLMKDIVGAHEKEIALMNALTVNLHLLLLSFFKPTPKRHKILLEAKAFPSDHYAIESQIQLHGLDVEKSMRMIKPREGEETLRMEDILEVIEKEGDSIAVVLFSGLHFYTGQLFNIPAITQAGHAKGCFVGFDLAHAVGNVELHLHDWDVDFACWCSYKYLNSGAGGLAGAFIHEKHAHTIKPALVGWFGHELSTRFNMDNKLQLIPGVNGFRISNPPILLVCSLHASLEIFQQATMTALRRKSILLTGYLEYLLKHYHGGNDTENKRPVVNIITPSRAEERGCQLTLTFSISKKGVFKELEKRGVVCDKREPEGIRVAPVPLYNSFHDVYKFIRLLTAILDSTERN
The experiment in a line: Compound was tested for the binding affinity against kynureninase in rat liver.

Test [2] addresses T1, Kynureninase. Kind of test: Compound was tested for the inhibition of mammalian kynureninase in rat liver. The class given is tissue-based.

What is called Ki is the dissociation constant of the complex between target and ligand, obtained from inhibition or displacement. A low value points to a stronger hold on the target. By IC50 is commonly meant the concentration at which inhibition is half-maximal. A lower IC50 goes with greater potency.

Take `Nc1ccccc1S(=O)(=O)CC(N)C(=O)O` (stereo not given): on Kynureninase [1], the Ki is 18 µM. Also, on Kynureninase [2], it took 36 µM to reach half-maximal inhibition (IC50).
With `Cc1ccc(N)c(S(=O)(=O)CC(N)C(=O)O)c1` (stereo not given), the 50% inhibitory concentration (IC50) on Kynureninase [2] amounted to 11 µM.
Still for that read-out and setting: with `Nc1c(F)cccc1S(=O)(=O)CC(N)C(=O)O` (stereo not given) the figure was 20 µM.
Same read-out and setting: with `COc1cccc(S(=O)(=O)CC(N)C(=O)O)c1N` (stereo not given) the figure was 29 µM.

(Values after ChEMBL document CHEMBL1130617, “S-aryl cysteine S,S-dioxides as inhibitors of mammalian kynureninase” (Bioorg Med Chem Lett, 1998).)
